Reference: paper PMC5570892, “Indole-based perenosins as highly potent HCl transporters and potential anti-cancer agents” (Scientific Reports, 2017)
“And” between values parts separate entries of the source, which are not always exact repeats. Equal values may be shown once. “Also recorded” adds a separate entry of the source.

Test: Cl^−/NO3^− antiport assay by chloride ISE
Assay type: biochemical
Details: for EC50 Cl^−/NO3^− at pH 7.2 (by ISE): EC50 at 270 s, carrier:lipid molar percent, POPC vesicles; for chloride transport at pH 6.5: phosphate buffer, compared to pH 7.2; for chloride transport at pH 7.2 (Hill analysis feasibility): Cl^−/NO3^− ISE assay, dose response; for chloride efflux at pH 4.5: citrate buffer, within 5 minutes
Description: The chloride transport properties of the new perenosins 2–8 were compared to 1d using the chloride/nitrate exchange assay monitored by a chloride ion selective electrode (ISE). Typically, unilamellar vesicles were prepared from POPC, containing an intravesicular NaCl solution (489 mM with 5 mM phosphate buffer at pH 7.2) suspended in a NaNO3 solution (489 mM with 5 mM phosphate buffer at pH 7.2). All perenosins were added as a DMSO solution and the rate of chloride efflux was monitored by the chloride ISE. At the end of the experiment (300 s), detergent was added to lyse the vesicles and obtain the 100% chloride efflux reading. Dose response studies of 1d and 2–8 were performed to allow Hill analysis, giving the EC50 values and Hill coefficients as shown in Table 2.
The external pH of cancer cells (pH 6.7[53]) is slightly acidic compared to healthy cells (pH 7.2–7.5[54]). […] To investigate the effect of pH on the chloride transport capabilities unilamellar vesicles were loaded with NaCl (489 mM) and suspended in NaNO3 (489 mM), and the internal and external solutions were buffered to pH 4.5, 6.5, 7.2 and 10 using various buffers (more detail can be found in the Supplementary Information). Compounds 1d and 2–8 were then tested in a single point screen at 0.1 mol% loading (Fig. 5). At pH 4.5 the perenosins exist predominantly as the active protonated species and so all compounds show moderate to high chloride transport properties, whereas, there is no chloride transport observed at pH 10 (see Supplementary Information for results).
S10. Anion Transport Studies
S10.1. General Procedure for the ISE Assay
Unilamellar vesicles were prepared using previously reported literature procedures7-9. A lipid film of POPC (1-palmitoyl-2-oleoyl-sn-glycero-3-phosphocholine) or POPC:cholesterol (7:3 molar ratio) was prepared from a chloroform solution under reduced pressure and then dried under vacuum for 4 or more hours. The lipid film was rehydrated by vortexing with an internal solution of buffered metal chloride salt (usually 489 mM MCl). The lipid suspension was then subjected to 9 freeze-thaw cycles and left to rest at room temperature for 30 minutes. After this, the suspension was extruded 25 times through a 200 nm polycarbonate membrane resulting in unilamellar vesicles of a mean diameter of 200 nm. The large unilamellar vesicles were dialysed in the corresponding external solution for a minimum of 2 hours to remove any unencapsulated metal salts. The lipid solution obtained after dialysis was diluted to a standard volume (usually 10 mL) with the external buffered solution to obtain a lipid stock of known concentration.
Internal and external solutions vary for each experiment and are detailed for each. Experiments conducted at different pHs required different buffers (citrate buffer for pH 4.5; phosphate buffer for pH 6.5 and pH 7.2; and ethanolamine buffer for pH 10) however, a constant buffer concentration (5 mM) and total ionic strength (500 mM) was maintained.
The lipid stock was diluted with the external buffer solution to a standard volume (5 mL), to afford a solution with a lipid concentration of 1 mM. The compounds were added as a DMSO solution (10 μL) at the start of the experiment and the resulting chloride efflux was monitored using a chloride selective electrode over 5 minutes. After this time, detergent (50 μL of Triton X-100 (11 w%) in H2O:DMSO (7:1 v/v)) was added to lyse the vesicles and after 7 minutes a final chloride efflux reading was taken. This value represented 100 % chloride efflux and was used to calibrate the other […]
Compared to pH 7.2, at pH 6.5 compounds 1d and 2-6 show increased transport ability with 2, 4 and 5 showing very similar, high transport capabilities and 1d, 3 and 6 not transporting to as great an […]
S10.3. Cl-/NO3- ISE Assay - Hill Analysis
The Cl-/NO3- exchange assay was performed as described above testing the compounds at varying […]
carrier concentration (mol%, with respect to lipid). The data points were then fitted to the Hill […]

Row | Structure (SMILES) | EC50 Cl^−/NO3^− at pH 7.2 (by ISE) | chloride efflux in POPC vesicles at pH 7.2 (0.1 mol% loading) | chloride transport at pH 6.5 (0.1 mol% loading) | chloride transport at pH 7.2 (Hill analysis feasibility) | maximum chloride efflux (after 300 s, loading of 10 mol%, pH 7.2) | chloride efflux at pH 4.5 (0.1 mol% loading)
1 | CCCCCc1cc(/N=C/c2[nH]c(C)cc2C)c2[nH]ccc2c1 [Perenosin 1d] | 0.122 mol% and 0.1220 mol% | – | – | – | – | –
2 | CCCCCc1cc2cc(C)cc(/N=C/c3[nH]c(C)cc3C)c2[nH]1 [Perenosin 2] | 0.0043 mol% | 100% | high | – | – | –
3 | CCCCCc1cc2cc(C(F)(F)F)cc(/N=C/c3[nH]c(C)cc3C)c2[nH]1 [Perenosin 3] | – | – | – | too weak to perform Hill analysis | 35% | –
4 | CCCc1cc2cc(C)cc(/N=C/c3[nH]c(C)cc3C)c2[nH]1 [Perenosin 4] | 0.0111 mol% | – | high | – | – | –
5 | CCCCCc1c(C)[nH]c(/C=N/c2cc(C)cc3cc[nH]c23)c1C [Perenosin 5] | 0.0227 mol% | – | high | – | – | –
6 | CCCCCc1cc2cc(C)cc(/N=C/c3[nH]c(C)c(CCCCC)c3C)c2[nH]1 [Perenosin 6] | 0.0852 mol% | – | – | – | – | –
7 | CCCCCc1cc(/N=C/c2[nH]c3ccccc3c2C)c2[nH]ccc2c1 [Perenosin 7] | – | – | inactive | too weak to perform Hill analysis; also recorded: weak transport activity | – | inactive
8 | CCCCCc1cc2cc(C)cc(/N=C/c3[nH]c4ccccc4c3C)c2[nH]1 [Perenosin 8] | – | – | inactive | too weak to perform Hill analysis; also recorded: weak transport activity | – | 35%
